Experimental data published in patent US8404713B2, “Quinolinone derivatives as PARP inhibitors” (Janssen Pharmaceutica NV, priority 2007, dated 2013).

Assays:
Human PARP-1 enzyme = molecular target: T1, Human PARP-1 enzyme (Homo sapiens, UniProt P09874); assay: In vitro scintillation proximity assay (SPA) for PARP-1 inhibitory activity; type: biochemical; settings: nicked DNA activated PARP-1, [3H]-NAD+, biotinylated histones; tested between 10^-5 M and 3x10^-9 M; read-out: in vitro SPA assay PARP-1 pIC50 (converted)
T1 construct: purchased Trevigen
T1 sequence (P09874 whole entry): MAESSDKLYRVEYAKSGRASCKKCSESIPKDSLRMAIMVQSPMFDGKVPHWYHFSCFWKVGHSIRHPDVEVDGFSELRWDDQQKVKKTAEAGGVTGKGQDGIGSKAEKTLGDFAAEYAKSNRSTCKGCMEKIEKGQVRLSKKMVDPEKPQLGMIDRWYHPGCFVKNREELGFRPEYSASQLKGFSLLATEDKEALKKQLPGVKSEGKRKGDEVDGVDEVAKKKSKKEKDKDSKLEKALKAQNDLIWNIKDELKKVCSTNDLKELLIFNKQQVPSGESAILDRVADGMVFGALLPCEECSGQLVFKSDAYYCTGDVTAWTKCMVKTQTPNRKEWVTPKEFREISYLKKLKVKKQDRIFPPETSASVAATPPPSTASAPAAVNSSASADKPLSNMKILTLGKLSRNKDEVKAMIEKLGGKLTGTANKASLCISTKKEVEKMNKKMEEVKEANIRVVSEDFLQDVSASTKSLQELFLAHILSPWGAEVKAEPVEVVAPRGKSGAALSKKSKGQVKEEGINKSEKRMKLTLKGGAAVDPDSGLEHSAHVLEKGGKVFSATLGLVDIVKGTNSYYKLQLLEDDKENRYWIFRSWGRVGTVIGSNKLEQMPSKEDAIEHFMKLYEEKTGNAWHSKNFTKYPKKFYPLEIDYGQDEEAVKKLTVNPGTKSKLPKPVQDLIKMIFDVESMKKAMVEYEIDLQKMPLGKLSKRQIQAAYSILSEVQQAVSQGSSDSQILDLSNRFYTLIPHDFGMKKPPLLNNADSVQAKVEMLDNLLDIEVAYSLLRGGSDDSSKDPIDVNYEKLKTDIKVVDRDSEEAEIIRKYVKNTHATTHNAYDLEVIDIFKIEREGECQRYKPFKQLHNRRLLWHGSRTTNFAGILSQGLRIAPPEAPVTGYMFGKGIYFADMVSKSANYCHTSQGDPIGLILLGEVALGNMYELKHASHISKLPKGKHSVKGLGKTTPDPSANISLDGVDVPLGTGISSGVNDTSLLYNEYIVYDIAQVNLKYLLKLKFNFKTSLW
Experimental: C.1. In Vitro Scintillation Proximity Assay (SPA) for PARP-1 Inhibitory Activity
Compounds of the present invention were tested in an in vitro assay based on SPA technology (proprietary to GE healthcare).
In principle, the assay relies upon the well established SPA technology for the detection of poly(ADP-ribosyl)ation of biotinylated target proteins, i.e histones. This ribosylation is induced using nicked DNA activated PARP-1 enzyme and [^3H]-nicotinamide adenine dinucleotide ([^3H]-NAD^+) as ADP-ribosyl donor.
Histones (type II-A, supplier: Sigma) were biotinylated using the biotinylation kit of Amersham and stored aliquoted at −20° C. A stock solution of 100 mg/ml SPA poly(vinyl toluene) (PVT) beads (supplier: Amersham) was made in PBS. A stock solution of 61.6 nM [^3H]-NAD^+ was made by adding [^3H]-NAD^+ (0.1 mCi/ml, supplier: Perkin Elmer) to incubation buffer (50 mM Tris/HCl, pH 8; 0.2 mM DTT; 4 mM MgCl2). A solution of 4 mM NAD^+ (supplier: Sigma) was made. Human PARP-1 enzyme was obtained from Trevigen. Biotinylated histones and PVT-SPA beads were mixed and pre-incubated for 30 min. at room temperature. PARP-1 enzyme (concentration was lot dependent) was mixed with the nicked DNA and the mixture was pre-incubated for 30 min. at 4° C. Equal parts of this histones/PVT-SPA beads solution and PARP-1 enzyme/DNA solution were mixed and 75 μl of this mixture together with 1 μl of compound in DMSO and 25 μl of [^3H]-NAD^+ was added per well into a 96-well microtiterplate. The final concentrations in the incubation mixture were 2 μg/ml for the biotinylated histones, 2 mg/ml for the PVT-SPA beads, 0.25 μg/ml for the nicked DNA and between 0.1-0.2 μg/ml for the PARP-1 enzyme. After incubation of the mixture for 20 min. at room temperature, the reaction was terminated by adding 100 μl of 4 mM NAD^+ in water (final concentration 2 mM) and plates were mixed. The beads were sedimented by centrifugation (10 min, 800 rpm). and plates transferred to a TopCountNXT™ (Packard) for scintillation counting, values were expressed as counts per minute (cpm). For each experiment, controls (containing PARP-1 enzyme and DMSO without compound), a blank incubation (containing DMSO but no PARP-1 enzyme, no DNA or compound) and samples (containing PARP-1 enzyme, DNA and compound dissolved in DMSO) were run in parallel. All compounds tested were dissolved and eventually further diluted in DMSO. A dose-response curve was made wherein the compounds were tested at concentrations between 10^−5M and 3×10^−9M. In each test, the blank value was subtracted from both the control and the sample values. The control sample represented maximal PARP-1 enzyme activity. For each sample, the amount of cpm was expressed as a percentage of the mean cpm value of the controls. When appropriate, IC50-values (concentration of the drug, needed to reduce the PARP-1 enzyme activity to 50% of the control) were computed using linear interpolation between the experimental points just above and below the 50% level. Herein the effects of test compounds are expressed as pIC50 (the negative log value of the IC50-value). As a reference compound, 4-amino-1,8-naphthalimide was included to validate the SPA assay.

TANK-2 enzyme = molecular target: T2, TANK-2 enzyme (Homo sapiens, UniProt Q9H2K2); assay: In vitro scintillation proximity assay (SPA) for TANK-2 inhibitory activity; type: biochemical; settings: auto-poly(ADP-ribosyl)ation, Ni flash plates; 96-well results if available, otherwise 384-well; tested between 10^-5 M and 3x10^-8 M; read-out: in vitro SPA assay TANK-2 pIC50 (converted)
T2 construct: made in house
T2 sequence (Q9H2K2 1-1166): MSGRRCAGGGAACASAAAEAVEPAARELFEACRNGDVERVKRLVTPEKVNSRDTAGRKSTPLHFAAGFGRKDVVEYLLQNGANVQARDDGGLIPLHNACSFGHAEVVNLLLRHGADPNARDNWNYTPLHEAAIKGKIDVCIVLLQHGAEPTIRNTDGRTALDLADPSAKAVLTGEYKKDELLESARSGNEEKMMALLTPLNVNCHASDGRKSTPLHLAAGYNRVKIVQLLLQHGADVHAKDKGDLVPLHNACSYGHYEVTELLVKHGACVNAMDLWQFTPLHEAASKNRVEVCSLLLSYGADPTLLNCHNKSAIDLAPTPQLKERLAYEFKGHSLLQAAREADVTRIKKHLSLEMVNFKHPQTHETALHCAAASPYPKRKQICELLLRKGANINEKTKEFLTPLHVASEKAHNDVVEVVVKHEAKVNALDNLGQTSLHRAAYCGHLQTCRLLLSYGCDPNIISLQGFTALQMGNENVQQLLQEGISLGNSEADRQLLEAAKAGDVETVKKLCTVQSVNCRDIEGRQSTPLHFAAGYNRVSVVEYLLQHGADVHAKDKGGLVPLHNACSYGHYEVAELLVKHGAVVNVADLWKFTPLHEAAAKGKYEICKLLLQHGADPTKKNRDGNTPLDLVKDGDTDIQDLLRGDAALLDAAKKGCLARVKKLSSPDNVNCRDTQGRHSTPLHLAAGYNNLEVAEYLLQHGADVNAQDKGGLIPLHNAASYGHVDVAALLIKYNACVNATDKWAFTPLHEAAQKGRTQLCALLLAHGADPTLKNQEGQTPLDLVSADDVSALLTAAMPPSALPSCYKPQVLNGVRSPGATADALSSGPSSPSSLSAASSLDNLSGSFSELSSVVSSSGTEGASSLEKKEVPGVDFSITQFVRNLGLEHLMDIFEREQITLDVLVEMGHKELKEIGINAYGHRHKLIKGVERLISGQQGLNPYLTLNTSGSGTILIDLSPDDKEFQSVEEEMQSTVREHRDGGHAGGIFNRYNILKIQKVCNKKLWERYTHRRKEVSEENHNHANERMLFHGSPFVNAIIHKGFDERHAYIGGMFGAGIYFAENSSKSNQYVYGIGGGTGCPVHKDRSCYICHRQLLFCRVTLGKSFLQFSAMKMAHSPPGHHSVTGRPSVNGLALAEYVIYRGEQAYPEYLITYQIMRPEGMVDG
Experimental: C.2. In Vitro Scintillation Proximity Assay (SPA) for TANK-2 Inhibitory Activity
Compounds of the present invention were tested in an in vitro assay based on SPA technology with Ni Flash plates (96 or 384 well).
In principle, the assay relies upon SPA technology for the detection of auto-poly(ADP-ribosyl)ation of TANK-2 protein using [^3H]-nicotinamide adenine dinucleotide ([^3H]-NAD^+) as ADP-ribosyl donor.
A stock solution of 100 nM [^3H]-NAD^+/NAD (0.1 mCi/ml, supplier: Perkin Elmer) and 0.25 mM NAD (Sigma) was made in assay buffer (60 mM Tris/HCl, pH 7.4; 0.9 mM DTT; 6 mM MgCl2). The TANK-2 enzyme was produced as described in EP1238063. 60 μl of assay buffer, together with 1 μl of compound in DMSO, 20 μl of [^3H]-NAD^+/NAD and 20 μl of TANK-2 enzyme (final concentration 8 μg/ml) was added per well into a 96-well Ni-coated flash plate (Perkin Elmer). After incubation of the mixture for 120 min. at room temperature, the reaction was terminated by adding 60 μl of stopsolution (42.6 mg NAD in 6 ml H2O). The plates were covered with a plate sealer and placed in a TopCountNX™ (Packard) for scintillation counting. Values were expressed as counts per minute (cpm). For each experiment, controls (containing TANK-2 enzyme and DMSO without compound), a blank incubation (containing DMSO but no TANK-2 enzyme or compound) and samples (containing TANK-2 enzyme and compound dissolved in DMSO) were run in parallel. All compounds tested were dissolved and eventually further diluted in DMSO. […] In each test, the blank value was subtracted from both the control and the sample values. The control sample represented maximal TANK-2 enzyme activity. For each sample, the amount of cpm was expressed as a percentage of the mean cpm value of the controls. When appropriate, IC50-values (concentration of the drug, needed to reduce the TANK-2 enzyme activity to 50% of the control) were computed using linear interpolation between the experimental points just above and below the 50% level. Herein the effects of test compounds are expressed as pIC50 (the negative log value of the IC50-value). As reference compounds, 3-aminobenzamide and 4-amino-1,8-naphtalimide were included to validate the SPA assay. Herein the assay was described using 96-well plates. In the assay using 384-well plates the same final concentrations were used and volumes were adapted.

Row | SMILES | IC50 (Human PARP-1 enzyme) [nM] | IC50 (TANK-2 enzyme) [nM]
1 | CCc1cc2ccc(C(CO)N3CCOCC3)cc2[nH]c1=O (stereo not drawn) [Compound 5] | 82.8 | 1440
2 | CCc1cc2ccc(CCCN3CCN(c4ccc(C#N)cn4)CC3)cc2[nH]c1=O [Compound 8] | 170 | 63.2
3 | CCc1cc2ccc(CN3CCN(c4ncc(C(=O)O)cn4)CC3)cc2[nH]c1=O [Compound 12] | 77.1 | 65.5
4 | CCc1cc2ccc(CN3CCN(c4ccc(C#N)cn4)CC3)cc2[nH]c1=O [Compound 17] | 0.865 | 76.6
5 | CCc1cc2ccc(CN3CCN(c4ccccc4Cl)CC3)cc2[nH]c1=O [Compound 18] | 0.566 | 1930
6 | CCc1cc2ccc(CNCCN3CCOCC3)cc2[nH]c1=O [Compound 19] | 4.6 | 5870
7 | CCc1cc2ccc(CN3CC=C(c4ccccc4)CC3)cc2[nH]c1=O [Compound 21] | 1.03 | 986
8 | CCc1cc2ccc(CN3CCN(c4ccc(C(F)(F)F)cn4)CC3)cc2[nH]c1=O [Compound 22] | 1.21 | 368
9 | CCc1cc2ccc(CNCCN3CCN(c4ncccn4)CC3)cc2[nH]c1=O [Compound 24] | 80.4 | 1000
10 | CCc1cc2ccc(CNCC3CCN(c4ncccn4)CC3)cc2[nH]c1=O [Compound 25] | 136 | 1100
11 | Cc1cc2ccc(CN3CCN(c4ncccn4)CC3)cc2[nH]c1=O [Compound 26] | 237 | 1980
12 | CCc1cc2ccc(CN3CCN(CCOC)CC3)cc2[nH]c1=O [Compound 27] | 65 | 3960
13 | CCc1cc2ccc(CN3C[C@@H]4C[C@H]3CN4c3ccc(Cl)cc3)cc2[nH]c1=O [Compound 28] | 34.8 | 650
14 | CCc1cc2ccc(CN3CCc4ccccc4C3)cc2[nH]c1=O [Compound 29] | 20 | 424
15 | CCc1cc2ccc(CN3CCN(c4ncccn4)CC3)cc2[nH]c1=O [Compound 30] | 14.3 | 188
16 | CCc1cc2ccc(CN3CCC(Cc4ccccc4)CC3)cc2[nH]c1=O [Compound 31] | 403 | 3120
17 | CCc1cc2ccc(C(O)CN3CCN(c4ncccn4)CC3)cc2[nH]c1=O (stereo not drawn) [Compound 32] | 89.5 | 92.3

More lines, now with the values ahead:

Row | IC50 (Human PARP-1 enzyme) [nM] | IC50 (TANK-2 enzyme) [nM] | SMILES
18 | 84.7 | 780 | CCc1cc2ccc(C(CO)N3CCN(c4ncccn4)CC3)cc2[nH]c1=O (stereo not drawn) [Compound 33]
19 | 94.6 | 391 | CCc1cc2ccc(C(O)CN3CCC(Cc4ccccc4)CC3)cc2[nH]c1=O (stereo not drawn) [Compound 34]
20 | 1.14 | 398 | CCc1cc2ccc(CN3CCN(c4ccncc4)CC3)cc2[nH]c1=O [Compound 35]
21 | 2.55 | 222 | CCc1cc2ccc(CN3CCN(c4cnccn4)CC3)cc2[nH]c1=O [Compound 36]
22 | 5.68 | 232 | CCc1cc2ccc(CN3CCN(c4n[nH]c5ccccc45)CC3)cc2[nH]c1=O [Compound 37]
23 | 11.9 | 867 | CCc1cc2ccc(CN(C)CCOC)cc2[nH]c1=O [Compound 38]
24 | 25.6 | 649 | CCc1cc2ccc(CN3CCN(c4ccc(C)c(C)c4)CC3)cc2[nH]c1=O [Compound 40]
25 | 34.2 | 500 | CCc1cc2ccc(CN3CCN(c4ccc(OC)c(OC)c4)CC3)cc2[nH]c1=O [Compound 41]
26 | 0.893 | 1300 | CCc1cc2ccc(CN3CCN(c4ccc(OC)cc4)CC3)cc2[nH]c1=O [Compound 42]
27 | 2.58 | 1720 | CCc1cc2ccc(CN3CCN(c4ccc(Cl)c(Cl)c4)CC3)cc2[nH]c1=O [Compound 43]
28 | 6.9 | 2190 | CCc1cc2ccc(CN3CCN(CCc4ccccc4)CC3)cc2[nH]c1=O [Compound 44]
29 | 16.3 | 1710 | CCc1cc2ccc(CN3CCN(c4cccc(Cl)c4)CC3)cc2[nH]c1=O [Compound 45]
30 | 9.48 | 5380 | CCc1cc2ccc(CNCCCc3ccccc3)cc2[nH]c1=O [Compound 46]
31 | 124 | 144 | CCc1cc2ccc(CNCc3ccncc3)cc2[nH]c1=O [Compound 47]
32 | – | 57.5 | CCc1cc2c(OC)cc(CN3CCN(c4ccc(C#N)cn4)CC3)cc2[nH]c1=O [Compound 69]
